Experimental data published in paper PMC12748266, “Testing antimicrobial peptides inhibiting protein synthesis in living E. coli and K. pneumoniae using bio-orthogonal non-canonical amino-acid tagging” (Frontiers in Microbiology, 2025).
In brackets after ≈: the same amount, converted by molar mass. Read-outs that look alike come from different tables or passages of the source. Marks after values point to notes of the source that are not given here.

Assays:
[1] = tested on: E. coli ATCC 25922; assay: Cell membrane permeabilization, propidium iodide flow cytometry; format: cell-based, Escherichia coli; conditions: for Membrane permeabilization (% PI +cells): compound at its MIC, 40 min, 5 × 10^6 CFU/mL, supplemented M9, mean of n = 3
Description: (§1) Membrane permeabilization of bacteria was then assessed by incubating bacteria at 37 °C, in a final volume of 1 mL, with varying concentrations of each peptide or antibiotic used for the BONCAT assay. 5 min before the ending of the selected incubation time (40 min), propidium iodide probe was added to the samples to a final concentration of 10 μg/mL before analysis using a flow cytometer. A positive control consisted of E. coli cells dehydrated with ethanol (as described above), while untreated cells were used as negative control. The fluorescence of untreated cells was used to establish the gating for positive PI-stained cells. Fixed bacterial cells, subjected to the click chemistry reaction to link the Alexa Fluor azide 488 probe, were analysed by flow cytometry and, among the gates-selected ones, only those that tested positive for Propidium Iodide, and thus permeabilized, were considered for the calculation of the mean fluorescence intensity (MFI) of the Alexa Fluor azide 488.
(§2) Samples were analyzed by an Attune NxT® (ThermoFisher) equipped with a blue laser (488 nm) and photomultiplier tubes (PMTs) BL1 (525/50) and BL3 (695/40) to collect fluorescence. All parameters were set in logarithmic scale and the signals were recorded as Area. Forward scattering (FSC) was set to 300 mV, side scattering (SSC) to 350 mV and thresholds to 0.2 for FSC and 0.5 for SSC. The compensation matrix was performed according to the tool software. Hierarchical gates and acquisition flow rate (200 μL/min) were set to avoid coincident events. The files were saved as FCS 3.1 and analysed by FCS Express De Novo software v7. Flow cytometry data are presented as means ± SD from three independent experiments (n = 3).

[2] = tested on: K. pneumoniae ATCC 700603; assay: as above; format: cell-based, Klebsiella pneumoniae; conditions: compound at its MIC, 40 min, 5 × 10^6 CFU/mL, supplemented M9; mean of n = 3
Description: as §1, with “An overnight culture of E. coli ATCC 25922, or of K. pneumoniae ATCC 700603, prepared as described above, was diluted to a final concentration of 5 × 10^6 CFU/mL and allowed to adjust for 30 min at 37 °C under shaking. Membrane” for “Membrane”
as §2

[3] = tested on: K. pneumoniae ATCC 700603; assay: BONCAT: HPG incorporation into newly synthesized proteins, flow cytometry; format: cell-based, Klebsiella pneumoniae; conditions: compound at MIC, 10 min pre-incubation then 30 min HPG; untreated = 100%; mean, n ≥ 3
Description: (§3) We used a modified protocol from [Lindivat et al. (2020)]. Briefly, overnight cultures of E. coli ATCC 25922 or K. pneumoniae ATCC 700603, prepared as described above, were diluted to a final concentration of 5×10^6 CFU/mL and allowed to adjust for 30 min at 37 °C. The culture was then incubated at 37 °C in the dark for 10 or 30 min in the presence or absence of each peptide or antibiotic at various concentrations, with a final volume of 1 mL. At this point, only in certain specified experimental assays, the compounds were removed from the supernatant by centrifugation (16,000 × g for 5 min) and bacteria were washed and resuspended in fresh supplemented M9 medium. Then, 32 μL of a 500 μM homopropargylglycine (HPG) solution were added to each sample, resulting in a final concentration of 16 μM in a finale volume of 1 mL. Also included in each assay were two untreated controls containing only bacteria and bacteria treated with 16 μM HPG alone, respectively. All samples were then incubated at 37 °C in the dark for 30 min. After incubation, samples were washed once with 1X filtered Phosphate Buffered Saline (PBS) (centrifuged at 16,000 x g for 5 min) and resuspended in PBS. After washing, samples were fixed with formaldehyde (Sigma Aldrich, USA) to a final concentration of 3% in 1 mL for 1 h at 25 °C. Subsequently, the samples were centrifuged at 16,000 x g for 5 min and resuspended in 1 mL of PBS. If not analysed immediately, the fixed samples were stored at 4 °C prior to performing the click chemistry reaction. Samples were centrifugated at 16,000 x g for 5 min and bacteria cells were dehydrated by ethanol that was added sequentially to achieve a final concentration of 50% (v/v) (3 min of incubation), 80% (v/v) (3 min of incubation), and 95% (v/v) (3 min of incubation). After dehydration, the samples were centrifugated (16,000 × g, 5 min) and resuspended in PBS. For cell analysis by SDS-PAGE, the following variations were implemented: bacterial cells were diluted in supplemented M9 medium to a final density of ~ 1 × 10^9 CFU/mL, and HPG was added to the samples at a final concentration of 160 μM. Bacteria were incubated with HPG for 0, 15, 30, 60, or 120 min at 37 °C in the dark.
The click reaction was carried out according to [Rostovtsev et al. (2002)]. 15 μL of a pre-mix solution (prepared as described above) were added to each sample containing fixed bacteria that had incorporated HPG (30 μL of pre-mix solution in case of samples prepared for SDS-PAGE analysis), resulting in the following final concentrations in each sample: 0.1 mM copper sulfate, 0.5 mM Tris (3-hydroxypropyltriazolylmethyl)amine (THPTA), and 2.5 μM Alexa Fluor azide 488. Additionally, 50 μL of freshly prepared 100 mM sodium ascorbate and 50 μL of 100 mM aminoguanidine were added (100 μL in case of samples prepared for SDS-PAGE analysis), bringing the final volume to 1 mL. The samples were gently inverted once to mix and incubated for 30 min in the dark at 25 °C. […]
An overnight culture of E. coli ATCC 25922, or of K. pneumoniae ATCC 700603, prepared as described above, was diluted to a final concentration of 5 × 10^6 CFU/mL and allowed to adjust for 30 min at 37 °C under shaking. Membrane permeabilization of bacteria was then assessed by incubating bacteria at 37 °C, in a final volume of 1 mL, with varying concentrations of each peptide or antibiotic used for the BONCAT assay. […] The fluorescence of untreated cells was used to establish the gating for positive PI-stained cells. […]

[4] = tested on: K. pneumoniae ATCC 700603; assay: microbe, parasite or virus in culture; format: cell-based, Klebsiella pneumoniae; conditions: for MIC: 18 h, 37 °C, mode of at least three experiments
Description: […] […] Serially two-fold dilution (1:1) were performed across subsequent wells to a final volume of 50 μL. […] […] The plates were sealed with parafilm to minimize evaporation and incubated at 37 °C for 18 h. The minimum inhibitory concentration (MIC) was visually determined as the lowest peptide concentration in a well with no visible bacterial growth. Data are reported as the mode of at least three independent experiments.

[5] = tested on: E. coli ATCC 25922; assay: microbe, parasite or virus in culture; format: cell-based, Escherichia coli; conditions: for MIC: 18 h, 37 °C, mode of at least three experiments
Description: […] Each peptide, diluted at a starting concentration of 128 μM in supplemented M9 medium was added to the first column of wells of a 96-well round-bottom microplate (Sarstedt, Milan, Italy). Serially two-fold dilution (1:1) were performed across subsequent wells to a final volume of 50 μL. 50 μL of bacterial suspension (1 × 10^7 CFU/mL) were then added to each well, to a final bacterial concentration in each well to 5 × 10^6 CFU/mL per well. Untreated bacterial culture was used as growth control, while 100 μL of uninoculated supplemented M9 medium was used to verify the sterility of the medium. The plates were sealed with parafilm to minimize evaporation and incubated at 37 °C for 18 h. The minimum inhibitory concentration (MIC) was visually determined as the lowest peptide concentration in a well with no visible bacterial growth. Data are reported as the mode of at least three independent experiments.

[6] = tested on: E. coli ATCC 25922; assay: BONCAT: HPG incorporation into newly synthesized proteins, flow cytometry; format: cell-based, Escherichia coli; conditions: compound at MIC; for Fluorescence Intensity (% of Control): 10 min pre-incubation then 30 min HPG, untreated = 100%, mean, n ≥ 3; for Decrease in fluorescence compared to untreated bacteria: 40 min total incubation (10 min + 30 min HPG)
Description: as §3
The click reaction was carried out according to [Rostovtsev et al. (2002)]. 15 μL of a pre-mix solution (prepared as described above) were added to each sample containing fixed bacteria that had incorporated HPG (30 μL of pre-mix solution in case of samples prepared for SDS-PAGE analysis), resulting in the following final concentrations in each sample: 0.1 mM copper sulfate, 0.5 mM Tris (3-hydroxypropyltriazolylmethyl)amine (THPTA), and 2.5 μM Alexa Fluor azide 488. Additionally, 50 μL of freshly prepared 100 mM sodium ascorbate and 50 μL of 100 mM aminoguanidine were added (100 μL in case of samples prepared for SDS-PAGE analysis), bringing the final volume to 1 mL. The samples were gently inverted once to mix and incubated for 30 min in the dark at 25 °C. Finally, each sample was washed with PBS once (centrifuged at 16,000 × g for 5 min) and resuspended in 1 mL PBS.
An overnight culture of E. coli ATCC 25922, or of K. pneumoniae ATCC 700603, prepared as described above, was diluted to a final concentration of 5 × 10^6 CFU/mL and allowed to adjust for 30 min at 37 °C under shaking. Membrane permeabilization of bacteria was then assessed by incubating bacteria at 37 °C, in a final volume of 1 mL, with varying concentrations of each peptide or antibiotic used for the BONCAT assay. 5 min before the ending of the selected incubation time (40 min), propidium iodide probe was added to the samples to a final concentration of 10 μg/mL before analysis using a flow cytometer. A positive control consisted of E. coli cells dehydrated with ethanol (as described above), while untreated cells were used as negative control. The fluorescence of untreated cells was used to establish the gating for positive PI-stained cells. […]

[7] = tested on: E. coli ATCC 25922; assay: Post-antibiotic effect (PAE), growth kinetics after washout; format: cell-based, Escherichia coli; conditions: 30 min treatment at MIC, OD600 every hour for 18 h in MHB, mean ± SD, n = 3
Description: An overnight culture of E. coli ATCC 25922, prepared as described above, was diluted to a final concentration of 5 × 10^6 CFU/mL and then incubated at 37 °C for 30 min in the presence or absence of each peptide or antibiotic at various concentrations, with a final volume of 1 mL. To measure the post-antibiotic effect (PAE) of antimicrobials, the compounds were removed from the supernatant by centrifugation (16,000 × g for 5 min) and bacteria were washed and resuspended in 1 mL of fresh supplemented MHB medium, to promote faster growth visible as increased absorbance. 200 μL of each sample was then transferred to a 96-well round-bottom microplate (Sarstedt, Milan, Italy), which was then placed in a Nanoquant Infinite-M200Pro plate reader with stable temperature at 37 °C. Each sample was surrounded by water-filled wells to reduce its own evaporation. Optical density at 600 nm was then recorded for each sample every hour for up to 18 h. PAE was calculated according to [Holfeld et al. (2018)] as the difference between the time needed for a cell culture incubated with an antibiotic substance to reach half-maximum absorbance of the control culture and the time that the control culture needed to reach half-maximum absorbance of the stationary phase. According to this definition, the PAE of each compound (expressed as time) was calculated based on the OD₆₀₀ value of its respective replicate, which corresponded to half of the maximum absorbance reached by the control culture in the stationary phase (at 18 h). The mean PAE values (PAE in hours) of each compound, were obtained by averaging the times from the three independent experiments.

[8] = Mueller Hinton, 2,5x10^5 CFU/mL

Molecule: CCO [Ethanol]
- Membrane permeabilization (% PI +cells) [1]: 78%
- Membrane permeabilization (% PI +cells) ([1]; listed as EtOH): 78%
- Membrane permeabilization (% PI +cells) [2]: 96%

Molecule: CN(C)[C@@H]1C(O)=C(C(N)=O)C(=O)[C@@]2(O)C(O)=C3C(=O)c4c(O)cccc4[C@@](C)(O)[C@H]3C[C@@H]12 [TET, tetracycline]
- Fluorescence Intensity (% of Control) [3]: 37 % of Control
- Membrane permeabilization (% PI +cells) [2]: <1%
- MIC ([4]; Klebsiella pneumoniae, ATCC700603, supplemented M9 medium, 5 × 10^6 CFU/mL, visual): 32 µM (≈ 14.2 µg/mL)

Molecule: Colistin
- Permeabilized cells (PI+) ([1]; colistin 0,5 µM (MIC) at 2,5x10^5 CFU/mL, 40 minutes of incubation): around 50%
- Membrane permeabilization (% PI +cells) [1]: 1%
- Membrane permeabilization (% PI +cells) ([1]; listed as Colistin): 1%
- Membrane permeabilization (% PI +cells) ([1]; listed as colistin): no membrane permeabilization
- Fold increase in MIC on 20-fold increase in cell density ([5]; MHB, 5×10^6 vs 2,5×10^5 CFU/well): 4-8 fold
- MIC [5, 8]: 0,5 * µM
- MIC ([5]; Mueller Hinton, 5x10^6 CFU/mL, read-out: MIC): 4 µM
- Fold increase in MIC in M9 medium compared to MHB ([5]; same bacterial concentration): 2-4 fold
- MIC ([5]; supplemented M9 medium, 5 × 10^6 CFU/mL, visual, read-out: MIC): 16 µM
- MIC [4, 8]: 1 µM
- Fold increase in MIC, BONCAT conditions vs standard conditions ([4]; supplemented M9 5×10^6 CFU/well vs MHB 2,5×10^5 CFU/well): 16 fold
- MIC ([4]; supplemented M9 medium, 5 × 10^6 CFU/mL, visual): 16 µM
- Fluorescence Intensity (% of Control) [6]: 87 % of Control
- Decrease in fluorescence compared to untreated bacteria [6]: nor decreased bacterial fluorescence

Molecule: CCn1cc(C(=O)O)c(=O)c2ccc(C)nc21 [NDX, Nalidixic Acid]
- Membrane permeabilization (% PI +cells) [1]: <1%
- MIC ([5]; Escherichia coli, ATCC25922, 18 h, supplemented M9 medium, 5 × 10^6 CFU/mL, visual, read-out: MIC): 16 µM (≈ 3.72 µg/mL)
- PAE [7]: 0.8 ± 0.4 h
- Fluorescence Intensity (% of Control) [6]: 107 % of Control
- Decrease in fluorescence compared to untreated bacteria [6]: did not affect fluorescence intensity
